A melting point compilation (Tetko et al.)

Row | melting point | SMILES
1 | 118 to 120 °C | COC(=O)C(C)Sc1ccccc1C(=O)O (stereo not given)
2 | 161 to 163 °C | Nc1cc(F)cc(C(=O)O)c1F
3 | 146 to 148 °C | COc1cc(C#N)ccc1OCCCC(=O)O
4 | 259 to 261 °C | O=C1CNc2ccncc2N1
5 | 229 to 231 °C | COc1cc(NC(C)=O)c(C(=O)O)cc1OC
6 | 149 to 151 °C | NS(=O)(=O)c1ccc(C(=O)CBr)cc1
7 | 155 to 157 °C | O=C(O)C=Cc1cc(Br)ccc1OC(F)F
8 | 144 to 146 °C | CC(C)(C)c1ccc(N)c(C(=O)O)c1
9 | 369 to 371 °C | O=C(O)c1ccc(NC2=NS(=O)(=O)c3ccccc32)cc1
10 | 195 to 197 °C | Cc1ccc(-n2c(C)c[nH]c2=O)cc1
11 | 99 to 101 °C | CN1CCC(C(=O)O)c2ccccc21 (stereo not given)
12 | 99 to 101 °C | COC(=O)c1ccc(C=O)[nH]1
13 | 154 to 156 °C | OCc1cnc(-c2ccccc2)[nH]1
14 | 139 to 141 °C | CCOc1ccc(S(N)(=O)=O)cc1Br
15 | 97 to 99 °C | CCOc1cccc(CNC(=O)CCl)c1
16 | 195 to 205 °C | O=S(=O)(c1ccc(Br)s1)N1CCNCC1
17 | 62 to 64 °C | COc1ccc(Oc2c(F)cc(CCl)cc2F)cc1
18 | 84 to 86 °C | COc1ccc(CC#N)cc1[N+](=O)[O-]
19 | 59 to 61 °C | COc1ccc2oc(C=O)cc2c1
20 | 253 to 255 °C | O=C1CC(=O)Nc2cc(S(=O)(=O)Cl)ccc2N1
21 | 37 to 39 °C | CC(C)Cc1ccc(C(=O)CBr)cc1
22 | 68 to 70 °C | CCOc1ccc([N+](=O)[O-])cc1CCl

Row | melting point | SMILES
23 | 145 to 147 °C | Cc1cc(C)c2c(N)c(C(=O)O)sc2n1
24 | 97 to 99 °C | N#Cc1cc(Br)ccc1N=C=O
25 | 139 to 141 °C | O=C(O)c1cc(Cl)no1
26 | 147 to 149 °C | O=C(O)/C=C/c1cc(C(F)(F)F)ccc1Cl
27 | 40 to 42 °C | CCOc1cc(CC#N)ccc1OCC(F)(F)F
28 | 209 to 211 °C | Cn1nc(-c2ccncc2)cc1O
29 | 58 to 60 °C | O=C(O)C(S)c1ccccc1 (stereo not given)
30 | 232 to 234 °C | CCc1nc2ccccc2n1CC(=O)O
31 | 91 to 93 °C | O=C1CCSc2c(Cl)cccc21
32 | 232 to 234 °C | O=C(O)c1ccc(S(=O)(=O)NCc2cccs2)cc1
33 | 106 to 108 °C | COC(=O)c1cc(N2CCOCC2)ccc1N
34 | 91 to 93 °C | O=c1[nH]c(C(F)(F)F)cs1
35 | 81 to 83 °C | O=S(=O)(c1ccc(CCl)o1)N1CCCC1
36 | 91 to 93 °C | Cc1cc(C(=O)NCC(C)C)ccc1N
37 | 211 to 213 °C | Cc1ccc(-c2nnc(N)[nH]2)c(C)c1
38 | 159 to 161 °C | COc1cc(S(=O)(=O)Cl)cc(C(=O)O)c1OC
39 | 109 to 111 °C | COc1ccc(-c2csc(NC(=O)CCl)n2)c(OC)c1
40 | 126 to 128 °C | CSc1ccc(C(=O)O)o1
41 | 108 to 112 °C | COc1cccc(NCC(=O)NN)c1
42 | 213 to 215 °C | O=C1NC(=O)N(c2ccccc2)C1=O
43 | 205 to 207 °C | Cn1c(SCC(=O)O)nnc1-c1cccs1
44 | 149 to 151 °C | CC1C(=O)NCCN1C(=O)c1ccco1 (stereo not given)

Row | melting point | SMILES
45 | 152 to 154 °C | N#Cc1ccc(NC(=O)CCCl)cc1
46 | 221 to 223 °C | O=C(O)C1CC(=O)N(c2ccc3c(c2)OCCO3)C1 (stereo not given)
47 | 204 to 206 °C | NNc1c(F)cc(C(=O)NC2CC2)cc1F
48 | 146 to 148 °C | CC(C)(C)NS(=O)(=O)c1ccc(N)nc1
49 | 183 to 185 °C | Cc1[nH][nH]c(=O)c1CCO
50 | 199 to 201 °C | O=C1Nc2cccc(I)c2C1=O
51 | 181 to 183 °C | CC(=O)NC(Cc1c[nH]c2cc(F)ccc12)C(=O)O (stereo not given)
52 | 79 to 81 °C | Cc1nc(-c2ccccc2Br)sc1C(C)O (stereo not given)
53 | 178 to 180 °C | Cc1cc(C)n2nc(C(=O)O)nc2n1
54 | 123 to 125 °C | CC(C)c1ccc(C(CN)NC(=O)OC(C)(C)C)cc1 (stereo not given)
55 | 122 to 124 °C | Cc1sc(C(N)=O)cc1S(=O)(=O)Cl
56 | 115 to 117 °C | CCn1c(CCl)nc2c(F)cccc21
57 | 125 to 127 °C | COc1ccc(-c2cc(N)n(-c3cccc(C)c3)n2)cc1
58 | 89 to 91 °C | CCc1ccc(C(=O)O)o1
59 | 304 to 306 °C | O=c1[nH]cc(N2CCOCC2)c(=O)[nH]1
60 | 105 to 107 °C | Clc1nnc(-c2ccccn2)s1
61 | 77 to 79 °C | CNC(C)c1sc(-c2ccc(C)cc2)nc1C (stereo not given)
62 | 90 to 91 °C | COc1ccccc1N1C(=O)C=CC1=O
63 | 103 to 105 °C | COc1cc(C(C)N)ccc1OCCO (stereo not given)
64 | 199 to 201 °C | O=C(O)c1cc([N+](=O)[O-])c2nsnc2c1
65 | 185 to 187 °C | C#Cc1cccc(NCC(=O)N2CCOCC2)c1
66 | 168 to 170 °C | CCOC(=O)c1cnc2nccn2c1

Row | melting point | SMILES
67 | 200 to 202 °C | Nc1sc2c(c1C(=O)c1ccc(C(F)(F)F)cc1)CCC2
68 | 159 to 161 °C | CCn1c(NN)nc2ccccc2c1=O
69 | 134 to 136 °C | O=c1n(CCO)nc2ccccn12
70 | 61 to 63 °C | CC(CSc1ccc(F)cc1)C(=O)O (stereo not given)
71 | 130 to 132 °C | Cc1occc1C(=O)Nc1cc(N)ccc1F
72 | 196 to 198 °C | Cc1oc(-c2cccs2)nc1C(=O)O
73 | 179 to 181 °C | CC1(c2ccco2)NC(=O)NC1=O (stereo not given)
74 | 219 to 221 °C | CCc1ccc(C(N)C(=O)O)cc1 (stereo not given)
75 | 210 to 212 °C | CCn1c(=O)cc(Cl)[nH]c1=O
76 | 160 to 162 °C | CC(C)(C)c1nc(=N)s[nH]1
77 | 147 to 149 °C | O=C(O)c1cccc(CSc2cc(Cl)cc(Cl)c2)c1
78 | 88 to 90 °C | Nc1cc(-c2ccc(OC(F)F)cc2)no1
79 | 45 to 47 °C | COC(=O)c1ccc(C)c(S(=O)(=O)Cl)c1
80 | 188 to 190 °C | Nc1nnc(-c2ccoc2)[nH]1
81 | 175 to 177 °C | CCOC(=O)C1SC(=N)NC1=O (stereo not given)
82 | 149 to 151 °C | O=C(O)c1cn(-c2cccc(C(F)(F)F)c2)nn1
83 | 220 to 222 °C | O=C(O)CN1C(=O)Cc2ccccc21
84 | 173 to 175 °C | COc1ccc(C(=O)NNC(=O)CCl)cc1OC
85 | 98 to 100 °C | O=C(O)Cc1cc(=O)n(-c2ccccn2)[nH]1
86 | 99 to 101 °C | COc1ccc(C(=O)C=C(SC)SC)cc1

More lines, now with the values behind:

Row | SMILES | melting point
87 | CCC(C)n1nccc1N (stereo not given) | 30 to 32 °C
88 | O=Cc1cnn(Cc2ccccc2Cl)c1 | 54 to 56 °C
89 | CCC(C)C(=O)N1CCCC(C(=O)O)C1 (stereo not given) | 118 to 120 °C
90 | COc1ccc(OC)c(-c2nn(-c3ccccc3)cc2C(=O)O)c1 | 174 to 176 °C
91 | CC1CCc2c(sc3nc(S)nc(S)c23)C1 (stereo not given) | 337 to 339 °C
92 | CCOC(C(=O)O)(c1ccccc1)c1ccccc1 | 113 to 115 °C
93 | Cn1cccc1C(=O)CCl | 30 to 40 °C
94 | CC1CC(C(=O)O)CC(C)O1 (stereo not given) | 109 to 111 °C
95 | C1CCc2nnc(CN3CCNCC3)n2CC1 | 158 to 162 °C
96 | Cc1nn(Cc2ccccc2)c(C)c1C(=O)O | 137 to 139 °C
97 | Nc1cccc(-c2cn3cccnc3n2)c1 | 125 to 130 °C
98 | O=C(O)C1CC1c1cccc2ccccc12 (stereo not given) | 116 to 118 °C
99 | CC(C)Oc1ccc(S(=O)(=O)N2CCCCC2)cc1NC(=O)CCl | 270 to 272 °C
100 | Cc1ccc(-c2nnc(-c3ccc(C(=O)O)cc3)o2)cc1 | 250 to 252 °C
101 | O=C(O)CCCn1ccc2cc(Cl)ccc21 | 79 to 81 °C
102 | CN(C)c1cc(C#N)c2ccccc2n1 | 119 to 121 °C
103 | O=C(O)C1CCCN1C(=O)C1CCCC1 (stereo not given) | 125 to 127 °C
104 | Ic1ccc(OCc2cccnc2)cc1 | 72 to 74 °C
105 | Nc1ncncc1-c1ccccc1 | 155 to 157 °C
106 | O=C(O)CNC(=O)NCc1ccc([N+](=O)[O-])cc1 | 166 to 168 °C

Row | SMILES | melting point
107 | O=C(NC1CCCCC1)c1cccnc1Cl | 132 to 134 °C
108 | O=C(O)c1cccnc1SCc1cccc(Br)c1 | 186 to 188 °C
109 | ClCc1cn2cccnc2n1 | 125 to 127 °C
110 | Cc1ccc(-c2nnc3n2CCCCC3)cc1N | 171 to 173 °C
111 | N#Cc1ccccc1Oc1ccccc1C(=O)O | 147 to 149 °C
112 | Cc1ccn2c(CN3CCNCC3)c(C)nc2c1 | 97 to 99 °C
113 | NC(=O)C1CCCn2ccnc21 (stereo not given) | 177 to 179 °C
114 | O=C(O)C=CC1=CCCC1 | 147 to 149 °C
115 | OCc1cn(-c2cccc(Cl)c2Cl)nn1 | 105 to 107 °C
116 | Cc1nc(S)n(C2CCCCC2)c1C | 218 to 220 °C
117 | CNC(=O)C(Br)Cc1ccccc1 (stereo not given) | 103 to 105 °C
118 | O=C(O)c1cn(Cc2ccccc2)nn1 | 176 to 178 °C
119 | N#CCC(=O)Nc1ccncc1 | 181 to 183 °C
120 | O=C(O)CCNS(=O)(=O)c1ccccc1Cl | 128 to 130 °C
121 | CC(C)C(O)c1nccn1C (stereo not given) | 80 to 82 °C
122 | O=C(Nc1cccc(Br)c1)c1ccccc1 | 136 to 138 °C
123 | Oc1cccc(-n2ccnc2)c1 | 172 to 174 °C
124 | Oc1ccc(CNC2CCCCC2)cc1 | 105 to 107 °C
125 | COCCc1noc(-c2cc(Cl)ccc2N)n1 | 93 to 95 °C
126 | CC(C)(C)OC(=O)N1CCC(CCC(=O)O)CC1 | 99 to 101 °C

Row | SMILES | melting point
127 | N#Cc1ccc(OCc2ccc(C(=O)O)o2)cc1 | 203 to 205 °C
128 | CC1CCN(c2ccc(NC(=O)CCC(=O)O)cc2)CC1 | 174 to 176 °C
129 | CSC(=CC(=O)c1cccnc1)SC | 103 to 105 °C
130 | COCCn1cc(C(=O)O)c2ccccc21 | 123 to 125 °C
131 | CC(=O)NC1CCC(=O)CC1 | 136 to 140 °C
132 | Cc1ccn(-c2ccc(Cl)nn2)n1 | 169 to 171 °C
133 | NC(=O)CC(NC(=O)c1ccccc1Cl)C(=O)O (stereo not given) | 190 to 192 °C
134 | Nc1cc(CO)ccc1Cl | 97 to 99 °C
135 | Oc1ccc(Oc2ccncc2)cc1 | 181 to 183 °C
136 | COC(=O)CC1CCCCC1=NO (stereo not given) | 74 to 76 °C
137 | O=C(Nc1ccc(C(=O)O)c(O)c1)c1cc(Cl)cc(Cl)c1 | 268 to 270 °C
138 | Cc1ccc(C#N)c(N2CCOCC2)c1 | 86 to 88 °C
139 | NC(=O)NC1(C(=O)O)CCCCC1 | 179 to 181 °C
140 | CCN(CC)c1ccc(-c2nnc(S)o2)cc1 | 163 to 165 °C
141 | Cc1ccccc1COc1cccc(CC(=O)O)c1 | 52 to 54 °C
142 | O=C(/C=C/c1ccc2c(c1)CCO2)N1CCCC(CO)C1 (stereo not given) | 131 to 133 °C
143 | Nc1nc(Br)cn2ccnc12 | 215 to 217 °C
144 | CCOC(=O)c1c(C)n(C2CCCC2)c2ccc(O)cc12 | 228 to 230 °C
145 | Cc1cc2ccc(Cl)cc2nc1NN | 169 to 171 °C
